# Article PMC9631755, “Development of AB3-Type Novel Phthalocyanine and Porphyrin Photosensitizers Conjugated with Triphenylphosphonium for Higher Photodynamic Efficacy” (ACS Omega, 2022)
# Where two headings read alike, the source gives them in different places.
# Key:
# BEAS-2B cells = test: MTT cell viability of BEAS-2B cells, dark and 660 nm light irradiation; assay type: cell-based
# Method: (§1) A549 and BEAS-2B cells were obtained from ATCC with reference numbers CCL-185 and CRL-9609, respectively. A549 cells were cultured in DMEM (with 2 mM L-glutamine, Gibco, United States), while RPMI 1640 (with 2 mM L-glutamine, Gibco, United States) was used for BEAS-2B cells. Both media were supplemented with 10% fetal bovine serum (FBS) (Gibco, United States), and cells were cultured in an incubator with a humidified atmosphere of 5% CO2 at 37 °C.[24]
# (§2) For the evaluation of cytotoxic activity, an MTT assay was employed. Cells were seeded 1 day prior to treatment in 96-well plates at a concentration of 20,000 cells/mL. Followed by overnight incubation, the cells were exposed to LuPcPox(OAc), AB3TPP-Pc, AB3TPP-Por-C4, PP-Por-C6, H2TPP, and ZnPc molecules. All molecules were dispersed in DMSO. The working concentrations of the molecules contain <0.1% (v/v) of DMSO. Time-point assays were performed after 24 and 48 h. The final concentration of MTT was 0.5 mg/mL, and after 3 h incubation, absorbances were measured at 545 nm. The absorbance of the blank group which was the samples containing media with 10% FBS was subtracted from the measurements and cell viability was determined by the following formula.[52] The control group was composed of nontreated cells. Cell viability (%) = (absorbance value of sample/absorbance value of control) × 100.
# (§3) The cells seeded at a concentration of 20,000 cells/mL in the 96-well plates were irradiated at 660 nm using an LED light array producing a flux of 0.036 J cm^–2 s^–1 (0.036 W/cm^2). In order to determine the cytotoxic effects of Pcs under light, one group of each cell line was exposed to an LED array for 30 min at room temperature and then returned to the incubator, while another group was incubated in the dark.[24] The delivered red photons on the cells were measured by a calibrated PAR meter (Apogee SQ-520). The temperature of the chamber under continuous light flux was monitored synchronously for ensuring the stability of the conditions.[53]
# (§4) The cells were seeded at a concentration of 20,000 cells/mL on 96-well plates and incubated for 24 h. The Pcs were added in 0.1, 2.5, 5, 10, 25, and 50 μM concentrations for evaluating the toxicity with/without light except for LuPcPox(OAc). The LuPcPox(OAc) was added into the wells as 0.01, 0.03, 0.09, 0.25, 0.50, and 1 μM concentration because a concentration over 1.0 μM kills the cells immediately. The Pcs in the cell media were discarded, and a fresh medium was added to the cells to remove noninternalized molecules. The viability of the cells was recorded for 24 and 48 h after the addition of Pcs. The cells were irradiated for 30 min.
# (§5) IC50 values of the Pcs were determined by fitting the cell’s viability curve acquired from the spectroscopic data. All the values were obtained by using Origin Software (Figure 7).
# [1] = Fluorescence quantum yield, comparative method; assay type: physicochemical; settings: THF
# Method: Excitation spectra in the Q-band region have been obtained by monitoring the fluorescence emission spectra at the indicated wavelength of porphyrins and phthalocyanine compounds. The fluorescence quantum yields (ΦF) of all structures were determined in THF, using a comparative method. The values were 0.009, 0.14, 0.13, and 0.13, for LuPcPox(OAc), AB3TPP-Pc, AB3TPP-Por-C4, and AB3TPP-Por-C6, respectively. The lowest ΦF value 0.009 belongs to LuPcPox(OAc) and is close to the value (0.004) obtained in DMSO in our previous study.[24] This could be the result of the higher atomic number of lutetium in the cavity of phthalocyanine which may facilitate intersystem crossing to its excited triplet state after excitation. However, the difference and purpose of this study from our previous work are to examine whether there will be a change in the fluorescence property with the addition of the mitochondria targeting the TPP group to the structure. We achieved this goal. The ΦF value of AB3TPP-Pc was 0.14, although it was lower than the reference molecule (ZnPc ΦF= 0.25),[43] and the presence of the TPP group on the structure increased the fluorescence efficiency approximately 15 times that of LuPcPox(OAc) ΦF = 0.009. […] The normalized absorption, excitation, and emission spectra for all compounds are shown in Figure 3, and ΦF values are given in Table 2.
# [2] = Singlet-oxygen quantum yield, direct method (phosphorescence); assay type: physicochemical; settings: for ΦΔ singlet-oxygen quantum yield: THF
# Method: For PDT, tumor cells are killed by ROS that is produced by a photosensitizer; thus, the production of ^1O2 by the photosensitizer plays a vitally important role in PDT.[46] To evaluate the photosensitizing properties of novel macrocyclic structures, singlet-oxygen quantum yields have been evaluated by a direct method in THF. Singlet-oxygen phosphorescence spectra for all compounds excited with a xenon-arc source at their respective absorption maxima were recorded by a near-IR-sensitive detector. ZnPc and H2TPP were used as the standard for phthalocyanine and porphyrin derivatives that have singlet oxygen yields of 0.53[47] and 0.58[33],[34] in THF, respectively. Singlet-oxygen phosphorescence spectra of Pc and Por. derivatives in THF at equal absorbance (0.23) were obtained to directly determine ΦΔ (Figures S20 and S21). […] Apparently, AB3TPP-Pc is almost three times as efficient as LuPcPox(OAc) in producing singlet oxygen, matching well with our proposal that the TPP-conjugated phthalocyanine could serve as an ideal candidate for mitochondrial-targeted PDT reagent.
# [3] = UV-vis absorption, extinction coefficient at 660 nm; assay type: physicochemical; settings: 2 × 10^–6 M in THF
# Method: In our study, the Lambert–Beer law indicating a linear relationship between absorbance and concentrations was obeyed for all porphyrin and phthalocyanine compounds in dimethylsulfoxide (DMSO) in the whole 2–8 μM concentration measurement range (Figure 2). The UV–vis spectra of macrocyclic compounds were recorded in both DMSO and tetrahydrofuran (THF), solvents in which all compounds are soluble (Figures S13–S19). […] This diverse absorption behavior of complexes comes from their different subunits which are isoindoles and pyrroles in the skeleton of macrocycles for phthalocyanine and porphyrin, respectively.[40],[41]Table 1 summarizes the wavelengths and associated extinction coefficients in Q and Soret (B) bands in DMSO.
# [4] = Fluorescence lifetime, TCSPC; assay type: physicochemical; settings: THF, mono-exponential decay
# Method: Luminescence lifetime measurements were performed on a fluorescence spectroscopy Fluorolog-3 (HORIBA Jobin Yvon) system in the single-photon counting (TCSPC) mode. A NanoLED light source (HORIBA Jobin Yvon) of λmax 390 nm was used for 395 nm excitation. All measurements were carried out in 0.2 ab. solutions in THF at room temperature. […] AB3TPP-Pc and LuPcPox(OAc) show a biexponential decay. The short-lived species are due to component features τf of 2.54 ns (responsible for 35.78%) and τf of 2.14 ns (responsible for 32.47%) photons emitted by AB3TPP-Pc and LuPcPox(OAc), respectively. The longer lifetime has a τf of 4.77 ns (assume 64.22%) and 3.11 ns (assume 67.53%) of emission for AB3TPP-Pc and LuPcPox(OAc), respectively.
# A549 cells = test: MTT cell viability of A549 cells, dark and 660 nm light irradiation; assay type: cell-based; settings: for IC50: 24 h
# Method: as §1, §2, §3, §4, §5
# [5] = THF, standard; cited from earlier work
# [6] = reference substance; cited from earlier work
# [7] = Homo sapiens, A549, light (660 nm, 30 min)
# [8] = Homo sapiens, dark, 24 h, read-out: IC50
# [9] = Homo sapiens, light (660 nm, 30 min), 24 h, read-out: IC50
ΦF fluorescence quantum yield [1],ΦΔ singlet-oxygen quantum yield [2],log ε (660 nm) [3],τF fluorescence lifetime [4] [ns],"IC50 (A549 cells; Homo sapiens, A549, dark) [µM]",IC50 (A549 cells; [7]) [µM],Compound,IC50 (BEAS-2B cells; [8]) [µM],IC50 (BEAS-2B cells; [9]) [µM],other results
,,,2.72,,,"[Zn+2].c1ccc2c(c1)-c1nc-2nc2[n-]c(nc3nc([n-]c4nc(n1)-c1ccccc1-4)-c1ccccc1-3)c1ccccc21 [ZnPc, zinc (II)phthalocyanine, reference compound]",,,
0.13,0.58,,10.3,,,"Tetraphenylporphyrin [H2TPP, reference compound]",,,"ΦΔ singlet-oxygen quantum yield [5]: 0.58; IC50 (A549 cells; A549, dark): 19.7 µM; IC50 (A549 cells; A549, light (660 nm, 30 min)): 19.7 µM; IC50 (BEAS-2B cells; dark, 24 h, read-out: IC50): 12.1 µM; IC50 (BEAS-2B cells; light (660 nm, 30 min), 24 h, read-out: IC50): 6.8 µM; ΦF fluorescence quantum yield [6]: 0.13"

# The next lines start with the compound.
Compound,ΦF fluorescence quantum yield [1],ΦΔ singlet-oxygen quantum yield [2],log ε (660 nm) [3],τF fluorescence lifetime [4] [ns],"IC50 (A549 cells; Homo sapiens, A549, dark) [µM]",IC50 (A549 cells; [7]) [µM],IC50 (BEAS-2B cells; [8]) [µM],IC50 (BEAS-2B cells; [9]) [µM],other results
COCCOCCOCCSc1cc2c(cc1SCCOCCOCCOC)-c1nc-2nc2[nH]c(nc3nc(nc4[nH]c(n1)c1cc(SCCOCCOCCOC)c(SCCOCCOCCOC)cc41)-c1cc(SCCOCCOCCOC)c(SCCOCCOCCOC)cc1-3)c1cc(SCCCCCCOCCCCCC[P+](c3ccccc3)(c3ccccc3)c3ccccc3)ccc21 [AB3TPP-Pc],0.14,0.75,4.18,,,,,,"cytotoxic concentration (BEAS-2B cells; dark, 24 and 48 h): < 6 µM; IC50 (BEAS-2B cells; light, 48 h, read-out: IC50 (cytotoxic concentration)): 2.4 µM; increase of fluorescence efficiency over LuPcPox(OAc) [1]: approximately 15 times; singlet oxygen-producing capacity compared to LuPcPox(OAc) [2]: ~3 times; singlet oxygen-producing capacity, more efficient with respect to ZnPc [2]: 50%"
COc1ccc(-c2c3nc(c(-c4ccc(OC)cc4)c4ccc([nH]4)c(-c4ccc(OCCCC[P+](c5ccccc5)(c5ccccc5)c5ccccc5)cc4)c4nc(c(-c5ccc(OC)cc5)c5ccc2[nH]5)C=C4)C=C3)cc1 [AB3TPP-Por-C4],0.13,0.57,3.43,8.87,> 50,10.3,11.5,< 0.1,"increase of toxicity under light compared to the dark (from IC50) (A549 cells; A549): 2 fold; cytotoxicity (in words) (A549 cells; A549, dark, up to 48 h): noncytotoxic"
COc1ccc(-c2c3nc(c(-c4ccc(OC)cc4)c4ccc([nH]4)c(-c4ccc(OCCCCCC[P+](c5ccccc5)(c5ccccc5)c5ccccc5)cc4)c4nc(c(-c5ccc(OC)cc5)c5ccc2[nH]5)C=C4)C=C3)cc1 [AB3TPP-Por-C6],0.13,0.58,3.56,8.91,24.9,3.6,10.3,< 0.1,"reduction of cell viability compared to AB3Por-C4 (phototoxicity) (A549 cells; A549): 2 fold; reduction of cell viability compared to H2TPP (phototoxicity) (A549 cells; A549): 5 fold; critical concentration (decrease in viability) (A549 cells; A549, after light irradiation, 24 and 48 h): 2.5 µM"
